According to patent publication US20090098097A1, “COMPOSITION FOR NORMALIZING BLOOD PRESSURE” (KANEKA CORPORATION, priority 2006, published 2009):

Columns and labels:
healthy male volunteers = experiment: Evaluation of blood pressure normalization by oxidized coenzyme Q10 in healthy subjects; assay type: in vivo, human; conditions: for systolic blood pressure / diastolic blood pressure relative to before ingestion (100): 4 weeks after ingestion; for systolic blood pressure: before breakfast
Description: Healthy male volunteers (22 subjects) ingested soft capsule preparation containing oxidized coenzyme Q10 (150 mg) by 6 capsules (total 900 mg) per day, and the blood pressure before breakfast was measured before and after ingestion for 4 weeks. After the measurement, the subjects were divided into three groups of hypotension group (n=6, not more than 110 mmHg), normal blood pressure group (n=8, 110-130 mmHg) and mild hypertension group (n=8, 130-150 mmHg), according to the systolic blood pressure before ingestion, and analyzed. […] Consequently, a hypotension improving effect of oxidized coenzyme Q10 in healthy human subjects has been clarified.

[1] = system: healthy male and female volunteers; experiment: Evaluation of blood pressure normalization by reduced coenzyme Q10 in healthy subjects; assay type: in vivo, human; conditions: for systolic blood pressure / diastolic blood pressure relative to before ingestion (100): 4 weeks after ingestion; for systolic blood pressure: before breakfast; for change in blood pressure after ingestion as compared to before ingestion (in words): 150 mg per day for 4 weeks
Description: Healthy male and female volunteers (20 subjects) ingested 5 soft capsules (total 150 mg) per day each containing 30 mg of reduced coenzyme Q10 (containing about 2% of oxidized coenzyme Q10), and the blood pressure before breakfast was measured before and after ingestion for 4 weeks. After the measurement, the subjects were divided into three groups of hypotension group (n=8, not more than 110 mmHg), normal blood pressure group (n=8, 110-130 mmHg) and mild hypertension group (n=4, 130-150 mmHg), according to the systolic blood pressure before ingestion, and analyzed.

Row | Compound | systolic blood pressure (healthy male volunteers; hypotension group (n=6, not more than 110 mmHg), 900 mg per day soft capsules, before ingestion 105.5 ± 4.4) [mmHg] | diastolic blood pressure relative to before ingestion (100) (healthy male volunteers; hypotension group, 900 mg per day, **p < 0.01 U-test) | systolic blood pressure (healthy male volunteers; mild hypertension group (n=8, 130-150 mmHg), 900 mg per day, before ingestion 135.8 ± 4.6) [mmHg] | diastolic blood pressure relative to before ingestion (100) (healthy male volunteers; mild hypertension group, 900 mg per day) | systolic blood pressure (healthy male volunteers; normal blood pressure group (n=8, 110-130 mmHg), 900 mg per day, before ingestion 126.1 ± 2.7) [mmHg] | change in blood pressure after ingestion as compared to before ingestion (in words) (healthy male volunteers; normal blood pressure group, 900 mg per day for 4 weeks) | diastolic blood pressure relative to before ingestion (100) (healthy male volunteers; normal blood pressure group, 900 mg per day) | systolic blood pressure ([1]; hypotension group (n=8, not more than 110 mmHg), 150 mg per day soft capsules, before ingestion 99.6 ± 4.9) [mmHg] | change in blood pressure after ingestion as compared to before ingestion (in words) ([1]; hypotension group) | diastolic blood pressure relative to before ingestion (100) ([1]; hypotension group, 150 mg per day, **p < 0.01 U-test) | systolic blood pressure ([1]; mild hypertension group (n=4, 130-150 mmHg), 150 mg per day, before ingestion 140.5 ± 9.2) [mmHg] | change in blood pressure after ingestion as compared to before ingestion (in words) ([1]; mild hypertension group) | diastolic blood pressure relative to before ingestion (100) ([1]; mild hypertension group, 150 mg per day, *p < 0.05 U-test) | systolic blood pressure ([1]; normal blood pressure group (n=8, 110-130 mmHg), 150 mg per day, before ingestion 125.3 ± 3.1) [mmHg] | change in blood pressure after ingestion as compared to before ingestion (in words) ([1]; normal blood pressure group) | diastolic blood pressure relative to before ingestion (100) ([1]; normal blood pressure group, 150 mg per day)
1 | COC1=C(OC)C(=O)C(C/C=C(\C)CC/C=C(\C)CC/C=C(\C)CC/C=C(\C)CC/C=C(\C)CC/C=C(\C)CC/C=C(\C)CC/C=C(\C)CC/C=C(\C)CCC=C(C)C)=C(C)C1=O [oxidized coenzyme Q10] | 126.5 ± 2.9 | (120**) | 134.8 ± 9.4 | (100) | 127.6 ± 7.7 | did not show significant variations | (101) |  |  |  |  |  |  |  |  | 
2 | COc1c(O)c(C)c(C/C=C(\C)CC/C=C(\C)CC/C=C(\C)CC/C=C(\C)CC/C=C(\C)CC/C=C(\C)CC/C=C(\C)CC/C=C(\C)CC/C=C(\C)CCC=C(C)C)c(O)c1OC [reduced coenzyme Q10] |  |  |  |  |  |  |  | 117.5 ± 6.2 | significant increase in the blood pressure | (118**) | 125.1 ± 6.1 | significant decrease in the blood pressure | (89*) | 125.5 ± 9.1 | did not show significant variations | (100)
